Values of other authors in publication PMC8513935.

Key:
[1] = log P octanol/water from commercial databases, averaged (the ESI); conditions: Octanol (wet), 25 C
[2] = experimental, compiled by the authors from the literature (the ESI cites the sources)
[3] = derived by the authors as gas->solvent minus gas->water (a hypothetical dry solvent; the ESI), not a two-phase measurement

In the case of `Cc1ccccc1C`, the log K of transfer, water to solvent [1] is given as 3.12 log10 K, the log K of transfer, gas to solvent ([2]; 1,2-Dichloroethane, 25 C) is given as 4.49 log10 K and the log K of transfer, gas to solvent ([2]; CCl4, 25 C) is given as 4.53 log10 K. For the same compound, the log K of transfer, gas to solvent ([2]; Chloroform, 25 C) was 4.57 log10 K, the log K of transfer, gas to solvent ([2]; Cyclohexane, 25 C) was 3.98 log10 K and the log K of transfer, gas to solvent ([2]; Hexadecane, 25 C) was 3.94 log10 K. For the same compound, the log K of transfer, gas to solvent ([2]; Octan-1-ol, 25 C) was 3.9 log10 K, the log K of transfer, gas to solvent ([2]; Pentan-1-ol, 25 C) was 3.8 log10 K and the log K of transfer, gas to solvent ([2]; Toluene, 25 C) was 4.48 log10 K. The log K of transfer, gas to solvent ([2]; Water, 25 C) was 0.66 log10 K, the log K of transfer, water to solvent ([3]; 1,2-Dichloroethane, 25 C) was 3.83 log10 K and the log K of transfer, water to solvent ([3]; CCl4, 25 C) was 3.87 log10 K. For the same compound, the log K of transfer, water to solvent ([3]; Chloroform, 25 C) was 3.91 log10 K, the log K of transfer, water to solvent ([3]; Cyclohexane, 25 C) was 3.32 log10 K and the log K of transfer, water to solvent ([3]; Hexadecane, 25 C) was 3.28 log10 K. For the same compound, the log K of transfer, water to solvent ([3]; Octan-1-ol(dry), 25 C) was 3.24 log10 K, the log K of transfer, water to solvent ([3]; Pentan-1-ol, 25 C) was 3.14 log10 K and the log K of transfer, water to solvent ([3]; Toluene, 25 C) was 3.82 log10 K.

For `CCCCN`, the log K of transfer, water to solvent [1] is given as 0.97 log10 K, the log K of transfer, gas to solvent ([2]; 1,2-Dichloroethane, 25 C) is given as 3.29 log10 K and the log K of transfer, gas to solvent ([2]; Benzene, 25 C) is given as 3.17 log10 K. The log K of transfer, gas to solvent ([2]; CCl4, 25 C) was 3.15 log10 K, the log K of transfer, gas to solvent ([2]; Chlorobenzene, 25 C) was 3.06 log10 K and the log K of transfer, gas to solvent ([2]; Chloroform, 25 C) was 3.86 log10 K. The log K of transfer, gas to solvent ([2]; Cyclohexane, 25 C) was 2.62 log10 K, the log K of transfer, gas to solvent ([2]; Di-n-butyl ether, 25 C) was 2.68 log10 K and the log K of transfer, gas to solvent ([2]; Hexadecane, 25 C) was 2.62 log10 K. The log K of transfer, gas to solvent ([2]; Octan-1-ol, 25 C) was 3.61 log10 K, the log K of transfer, gas to solvent ([2]; Toluene, 25 C) was 3.25 log10 K and the log K of transfer, gas to solvent ([2]; Water, 25 C) was 3.11 log10 K. For the same compound, the log K of transfer, water to solvent ([3]; 1,2-Dichloroethane, 25 C) was 0.18 log10 K, the log K of transfer, water to solvent ([3]; Benzene, 25 C) was 0.06 log10 K and the log K of transfer, water to solvent ([3]; CCl4, 25 C) was 0.04 log10 K. For the same compound, the log K of transfer, water to solvent ([3]; Chlorobenzene, 25 C) was -0.05 log10 K, the log K of transfer, water to solvent ([3]; Chloroform, 25 C) was 0.75 log10 K and the log K of transfer, water to solvent ([3]; Cyclohexane, 25 C) was -0.488 log10 K. For the same compound, the log K of transfer, water to solvent ([3]; Di-n-butyl ether, 25 C) was -0.43 log10 K, the log K of transfer, water to solvent ([3]; Hexadecane, 25 C) was -0.492 log10 K and the log K of transfer, water to solvent ([3]; Octan-1-ol(dry), 25 C) was 0.5 log10 K. The log K of transfer, water to solvent ([3]; Toluene, 25 C) was 0.14 log10 K.

In the case of `CN1CCCCC1`, the log K of transfer, water to solvent [1] is given as 1.29 log10 K, the log K of transfer, gas to solvent ([2]; Chloroform, 25 C) is given as 4.21 log10 K and the log K of transfer, gas to solvent ([2]; Hexadecane, 25 C) is given as 3.33 log10 K. The log K of transfer, gas to solvent ([2]; Water, 25 C) was 2.85 log10 K, the log K of transfer, water to solvent ([3]; Chloroform, 25 C) was 1.36 log10 K and the log K of transfer, water to solvent ([3]; Hexadecane, 25 C) was 0.48 log10 K.

For `C=C`, the log K of transfer, water to solvent [1] is given as 1.13 log10 K, the log K of transfer, gas to solvent ([2]; 1,2-Dichloroethane, 25 C) is given as 0.36 log10 K and the log K of transfer, gas to solvent ([2]; 2-Methylpropan-1-ol, 25 C) is given as 0.34 log10 K. For the same compound, the log K of transfer, gas to solvent ([2]; 2-Methylpropan-2-ol, 25 C) was 0.36 log10 K, the log K of transfer, gas to solvent ([2]; Butan-1-ol, 25 C) was 0.34 log10 K and the log K of transfer, gas to solvent ([2]; Butan-2-ol, 25 C) was 0.32 log10 K. The log K of transfer, gas to solvent ([2]; CCl4, 25 C) was 0.57 log10 K, the log K of transfer, gas to solvent ([2]; Chlorobenzene, 25 C) was 0.45 log10 K and the log K of transfer, gas to solvent ([2]; Cyclohexanone, 25 C) was 0.401 log10 K. The log K of transfer, gas to solvent ([2]; Ethanol, 25 C) was 0.41 log10 K, the log K of transfer, gas to solvent ([2]; Heptan-1-ol, 25 C) was 0.312 log10 K and the log K of transfer, gas to solvent ([2]; Hexadecane, 25 C) was 0.289 log10 K. The log K of transfer, gas to solvent ([2]; Hexan-1-ol, 25 C) was 0.318 log10 K, the log K of transfer, gas to solvent ([2]; Hexane, 25 C) was 0.471 log10 K and the log K of transfer, gas to solvent ([2]; Methanol, 25 C) was 0.41 log10 K. For the same compound, the log K of transfer, gas to solvent ([2]; Octan-1-ol, 25 C) was 0.28 log10 K, the log K of transfer, gas to solvent ([2]; Pentan-1-ol, 25 C) was 0.35 log10 K and the log K of transfer, gas to solvent ([2]; Propan-1-ol, 25 C) was 0.38 log10 K. For the same compound, the log K of transfer, gas to solvent ([2]; Propan-2-ol, 25 C) was 0.33 log10 K, the log K of transfer, gas to solvent ([2]; Propanone, 25 C) was 0.56 log10 K and the log K of transfer, gas to solvent ([2]; Tetrahydrofuran, 25 C) was 0.6 log10 K. The log K of transfer, gas to solvent ([2]; Water, 25 C) was -0.94 log10 K, the log K of transfer, water to solvent ([3]; 1,2-Dichloroethane, 25 C) was 1.3 log10 K and the log K of transfer, water to solvent ([3]; 2-Methylpropan-1-ol, 25 C) was 1.28 log10 K. The log K of transfer, water to solvent ([3]; 2-Methylpropan-2-ol, 25 C) was 1.3 log10 K, the log K of transfer, water to solvent ([3]; Acetone, 25 C) was 1.5 log10 K and the log K of transfer, water to solvent ([3]; Butan-1-ol, 25 C) was 1.28 log10 K. For the same compound, the log K of transfer, water to solvent ([3]; Butan-2-ol, 25 C) was 1.26 log10 K, the log K of transfer, water to solvent ([3]; CCl4, 25 C) was 1.51 log10 K and the log K of transfer, water to solvent ([3]; Chlorobenzene, 25 C) was 1.39 log10 K. For the same compound, the log K of transfer, water to solvent ([3]; Cyclohexanone, 25 C) was 1.34 log10 K, the log K of transfer, water to solvent ([3]; Ethanol, 25 C) was 1.35 log10 K and the log K of transfer, water to solvent ([3]; Heptan-1-ol, 25 C) was 1.25 log10 K. The log K of transfer, water to solvent ([3]; Hexadecane, 25 C) was 1.23 log10 K, the log K of transfer, water to solvent ([3]; Hexan-1-ol, 25 C) was 1.26 log10 K and the log K of transfer, water to solvent ([3]; Hexane, 25 C) was 1.41 log10 K. For the same compound, the log K of transfer, water to solvent ([3]; Methanol, 25 C) was 1.35 log10 K, the log K of transfer, water to solvent ([3]; Octan-1-ol(dry), 25 C) was 1.22 log10 K and the log K of transfer, water to solvent ([3]; Pentan-1-ol, 25 C) was 1.29 log10 K. For the same compound, the log K of transfer, water to solvent ([3]; Propan-1-ol, 25 C) was 1.32 log10 K, the log K of transfer, water to solvent ([3]; Propan-2-ol, 25 C) was 1.27 log10 K and the log K of transfer, water to solvent ([3]; Tetrahydrofuran, 25 C) was 1.54 log10 K.

In the case of `C=CC`, the log K of transfer, water to solvent [1] is listed as 1.77 log10 K, the log K of transfer, gas to solvent ([2]; 2-Methylpropan-1-ol, 25 C) is listed as 0.95 log10 K and the log K of transfer, gas to solvent ([2]; 2-Methylpropan-2-ol, 25 C) is listed as 0.99 log10 K. For the same compound, the log K of transfer, gas to solvent ([2]; 3-Methylbutan-1-ol, 25 C) was 0.963 log10 K, the log K of transfer, gas to solvent ([2]; Butan-1-ol, 25 C) was 1.03 log10 K and the log K of transfer, gas to solvent ([2]; Butan-2-ol, 25 C) was 0.97 log10 K. For the same compound, the log K of transfer, gas to solvent ([2]; Butanone, 25 C) was 1.13 log10 K, the log K of transfer, gas to solvent ([2]; CCl4, 25 C) was 1.35 log10 K and the log K of transfer, gas to solvent ([2]; Hexadecane, 25 C) was 0.946 log10 K. The log K of transfer, gas to solvent ([2]; Hexane, 25 C) was 1.29 log10 K, the log K of transfer, gas to solvent ([2]; Methanol, 25 C) was 0.95 log10 K and the log K of transfer, gas to solvent ([2]; Pentan-1-ol, 25 C) was 0.97 log10 K. The log K of transfer, gas to solvent ([2]; Propan-1-ol, 25 C) was 0.99 log10 K, the log K of transfer, gas to solvent ([2]; Propan-2-ol, 25 C) was 0.97 log10 K and the log K of transfer, gas to solvent ([2]; Water, 25 C) was -0.97 log10 K. For the same compound, the log K of transfer, water to solvent ([3]; 2-Methylpropan-1-ol, 25 C) was 1.92 log10 K, the log K of transfer, water to solvent ([3]; 2-Methylpropan-2-ol, 25 C) was 1.96 log10 K and the log K of transfer, water to solvent ([3]; 3-Methylbutan-1-ol, 25 C) was 1.93 log10 K. For the same compound, the log K of transfer, water to solvent ([3]; Butan-1-ol, 25 C) was 2 log10 K, the log K of transfer, water to solvent ([3]; Butan-2-ol, 25 C) was 1.94 log10 K and the log K of transfer, water to solvent ([3]; Butanone, 25 C) was 2.1 log10 K. For the same compound, the log K of transfer, water to solvent ([3]; CCl4, 25 C) was 2.32 log10 K, the log K of transfer, water to solvent ([3]; Hexadecane, 25 C) was 1.92 log10 K and the log K of transfer, water to solvent ([3]; Hexane, 25 C) was 2.25 log10 K. The log K of transfer, water to solvent ([3]; Methanol, 25 C) was 1.92 log10 K, the log K of transfer, water to solvent ([3]; Pentan-1-ol, 25 C) was 1.94 log10 K and the log K of transfer, water to solvent ([3]; Propan-1-ol, 25 C) was 1.96 log10 K. The log K of transfer, water to solvent ([3]; Propan-2-ol, 25 C) was 1.94 log10 K.
